Test results reported in patent US9493455B2, “Azaindole derivatives as inhibitors of protein kinases” (ORIBASE PHARMA, priority 2012, dated 2016).

Key:
BxPC-3 = assay: In vitro cell proliferation assay (MTT); format: cell-based; settings: Homo sapiens, BXPC-3, 72 h
Experimental: (§1) Cancer cell lines (5×10^3 cells per well) or HUVEC (1×10^4 cells per well) or HRMEC (1×10^4 cells per well) were distributed in 96-well plates and incubating in duplicate with escalating concentrations (10 nM to 3 μM) of compounds for 72 hr. Cell proliferation was measured using MTT (3 [4,5-dimethylthiazol-2-yl]-2,5-diphenyltetrazolium bromide).

A549 = assay: In vitro cell proliferation assay (MTT); format: cell-based; settings: Homo sapiens, A549, 72 h
Experimental: as §1

HUVEC = assay: In vitro cell proliferation assay (MTT); format: cell-based; settings: Homo sapiens, 72 h
Experimental: as §1

HepG2 = assay: In vitro cell proliferation assay (MTT); format: cell-based; settings: Homo sapiens, HepG2, 72 h
Experimental: as §1

H1975 = assay: In vitro cell proliferation assay (MTT); format: cell-based; settings: Homo sapiens, NCI-H1975, 72 h
Experimental: as §1

HT29 = assay: In vitro cell proliferation assay (MTT); format: cell-based; settings: Homo sapiens, HT-29, 72 h
Experimental: as §1

FGFR2 = molecular target: T1, FGFR2 (Homo sapiens, UniProt P21802); assay: In vitro kinase assay (Z′-LYTE); format: biochemical; settings: read-out: % of inhibition of the kinase compared to the control
T1 construct: purchased Invitrogen
T1 sequence (P21802 22-821): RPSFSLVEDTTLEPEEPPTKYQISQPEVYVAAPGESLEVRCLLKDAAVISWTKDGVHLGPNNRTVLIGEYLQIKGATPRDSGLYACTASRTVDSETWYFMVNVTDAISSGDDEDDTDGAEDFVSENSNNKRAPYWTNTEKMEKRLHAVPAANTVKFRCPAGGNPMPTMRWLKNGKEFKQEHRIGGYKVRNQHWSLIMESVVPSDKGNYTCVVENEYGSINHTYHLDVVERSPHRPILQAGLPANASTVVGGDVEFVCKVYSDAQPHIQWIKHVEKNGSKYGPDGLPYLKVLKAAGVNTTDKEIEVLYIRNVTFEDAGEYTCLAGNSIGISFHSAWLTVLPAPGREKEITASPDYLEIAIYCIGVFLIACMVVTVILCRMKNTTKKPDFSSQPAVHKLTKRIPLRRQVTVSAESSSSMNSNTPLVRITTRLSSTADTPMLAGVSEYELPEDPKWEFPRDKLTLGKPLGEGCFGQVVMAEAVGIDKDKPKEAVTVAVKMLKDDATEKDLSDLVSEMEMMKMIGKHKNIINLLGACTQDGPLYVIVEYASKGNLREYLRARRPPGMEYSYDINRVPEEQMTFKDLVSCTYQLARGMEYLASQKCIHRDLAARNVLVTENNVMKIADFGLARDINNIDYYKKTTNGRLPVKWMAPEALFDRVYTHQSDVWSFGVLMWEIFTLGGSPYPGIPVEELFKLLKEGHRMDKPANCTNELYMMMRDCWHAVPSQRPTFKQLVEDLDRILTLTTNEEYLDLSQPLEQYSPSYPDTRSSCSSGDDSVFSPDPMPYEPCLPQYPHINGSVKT
Experimental: (§2) The inhibitory activity of the compounds on several kinases including BRAF, EGFR (ErbB1), EGFR (ErbB1) T790M L858R, FGFR2, KDR (VEGFR2), PDGFRA (PDGFR alpha), SRC and other was evaluated by Invitrogen using the Z′-LYTE® technology. Briefly, the Z′-LYTE® biochemical assay employs a fluorescence-based, coupled-enzyme format and is based on the differential sensitivity of phosphorylated and non-phosphorylated peptides to proteolytic cleavage. The peptide substrate is labeled with two fluorophores—one at each end—that make up a FRET pair. A ratiometric method, which calculates the ratio (the Emission Ratio) of donor emission to acceptor emission after excitation of the donor fluorophore at 400 nm, is used to quantitate reaction progress.
(§3) The compounds are screened in 1% DMSO (final) in the well. For 10 point titrations, 3-fold serial dilutions are conducted from the starting concentration. All Peptide/Kinase Mixtures are diluted to a 2× working concentration in the appropriate Kinase Buffer. All ATP Solutions are diluted to a 4× working concentration in Kinase Buffer (50 mM HEPES pH 7.5, 0.01% BRIJ-35, 10 mM MgCl2, 1 mM EGTA). ATP Km apparent is previously determined using a Z′-LYTE® assay.
(§4) Each compound was incubated at a concentration of 100 nM (excepted to test the activity against ABL and ABL T315I for which the compounds were incubated at a concentration of 10 μM) and the tables B1 to B12 summarize the results obtained showing the inhibitory power of a compound. The inhibitory activity of OR0512 was also investigated using the same assays and the kinases for which activity was inhibited at more than 50% at the concentration of 100 nM of OR0512 are listed in the table B13.

ABL T315I = molecular target: T2, ABL T315I (Homo sapiens, UniProt P00519, T315I); assay: In vitro kinase assay (Z′-LYTE); format: biochemical; settings: read-out: % of inhibition of the kinase compared to the control
T2 construct: purchased Invitrogen
Experimental: as §2, §3, §4

PDGFRB = molecular target: T3, PDGFRB (Homo sapiens, UniProt P09619); assay: In vitro kinase assay (Z′-LYTE); format: biochemical; settings: read-out: % of inhibition of the kinase compared to the control
T3 construct: purchased Invitrogen
Experimental: as §2, §3, §4

BRAF = molecular target: T4, BRAF (Homo sapiens, UniProt P15056); assay: In vitro kinase assay (Z′-LYTE); format: biochemical; settings: compound 100 nM; ATP 100 μM; read-out: % of inhibition of the kinase compared to the control
T4 construct: purchased Invitrogen
Experimental: as §2, §3, §4

VEGFR1 = molecular target: T5, VEGFR1 (Homo sapiens, UniProt P17948); assay: In vitro kinase assay (Z′-LYTE); format: biochemical; settings: read-out: % of inhibition of the kinase compared to the control
T5 construct: purchased Invitrogen
T5 sequence (P17948 27-1338): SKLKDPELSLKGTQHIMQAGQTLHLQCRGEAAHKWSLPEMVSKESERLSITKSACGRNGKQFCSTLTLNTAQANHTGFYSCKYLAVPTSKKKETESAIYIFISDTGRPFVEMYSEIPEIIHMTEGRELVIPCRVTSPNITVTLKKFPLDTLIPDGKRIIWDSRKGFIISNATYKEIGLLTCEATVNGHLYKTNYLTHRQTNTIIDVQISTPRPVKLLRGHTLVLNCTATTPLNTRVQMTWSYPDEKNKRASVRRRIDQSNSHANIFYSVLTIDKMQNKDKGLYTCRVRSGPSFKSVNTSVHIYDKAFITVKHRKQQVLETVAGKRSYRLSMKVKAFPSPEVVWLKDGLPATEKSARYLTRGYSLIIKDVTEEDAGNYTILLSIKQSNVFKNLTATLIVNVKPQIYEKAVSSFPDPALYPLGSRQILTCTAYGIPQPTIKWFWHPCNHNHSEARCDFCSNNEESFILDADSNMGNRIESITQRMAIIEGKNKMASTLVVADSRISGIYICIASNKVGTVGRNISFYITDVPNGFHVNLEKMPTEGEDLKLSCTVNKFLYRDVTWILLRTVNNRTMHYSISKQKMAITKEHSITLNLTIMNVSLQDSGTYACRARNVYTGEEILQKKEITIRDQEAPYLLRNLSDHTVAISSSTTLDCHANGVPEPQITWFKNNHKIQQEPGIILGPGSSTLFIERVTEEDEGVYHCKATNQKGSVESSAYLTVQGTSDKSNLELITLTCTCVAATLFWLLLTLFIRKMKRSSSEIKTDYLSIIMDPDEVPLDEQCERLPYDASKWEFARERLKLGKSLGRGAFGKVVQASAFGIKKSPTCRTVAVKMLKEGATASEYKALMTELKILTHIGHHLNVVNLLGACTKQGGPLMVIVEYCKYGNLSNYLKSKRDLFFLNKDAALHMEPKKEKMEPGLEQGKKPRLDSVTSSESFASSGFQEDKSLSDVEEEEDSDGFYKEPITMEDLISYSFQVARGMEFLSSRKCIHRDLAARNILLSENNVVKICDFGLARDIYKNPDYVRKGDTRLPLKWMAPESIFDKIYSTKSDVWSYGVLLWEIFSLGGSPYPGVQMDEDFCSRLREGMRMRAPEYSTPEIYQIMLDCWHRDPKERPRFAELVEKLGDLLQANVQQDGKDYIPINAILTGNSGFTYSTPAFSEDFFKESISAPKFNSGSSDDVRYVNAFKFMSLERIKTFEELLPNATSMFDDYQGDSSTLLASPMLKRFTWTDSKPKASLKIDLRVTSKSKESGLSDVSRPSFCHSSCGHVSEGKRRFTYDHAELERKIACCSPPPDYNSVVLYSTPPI
Experimental: as §2, §3, §4

ABL = molecular target: T6, ABL (Homo sapiens, UniProt P00519); assay: In vitro kinase assay (Z′-LYTE); format: biochemical; settings: read-out: % of inhibition of the kinase compared to the control
T6 construct: purchased Invitrogen
Experimental: as §2, §3, §4

EGFR (ErbB1) T790M L858R = molecular target: T7, EGFR (ErbB1) T790M L858R (Homo sapiens, UniProt P00533, L858R/T790M); assay: In vitro kinase assay (Z′-LYTE); format: biochemical; settings: read-out: % of inhibition of the kinase compared to the control
T7 construct: purchased Invitrogen
Experimental: as §2, §3, §4

KDR (VEGFR2) = molecular target: T8, KDR (VEGFR2) (Homo sapiens, UniProt P35968); assay: In vitro kinase assay (Z′-LYTE); format: biochemical; settings: read-out: % of inhibition of the kinase compared to the control
T8 construct: purchased Invitrogen
T8 sequence (P35968 20-1356): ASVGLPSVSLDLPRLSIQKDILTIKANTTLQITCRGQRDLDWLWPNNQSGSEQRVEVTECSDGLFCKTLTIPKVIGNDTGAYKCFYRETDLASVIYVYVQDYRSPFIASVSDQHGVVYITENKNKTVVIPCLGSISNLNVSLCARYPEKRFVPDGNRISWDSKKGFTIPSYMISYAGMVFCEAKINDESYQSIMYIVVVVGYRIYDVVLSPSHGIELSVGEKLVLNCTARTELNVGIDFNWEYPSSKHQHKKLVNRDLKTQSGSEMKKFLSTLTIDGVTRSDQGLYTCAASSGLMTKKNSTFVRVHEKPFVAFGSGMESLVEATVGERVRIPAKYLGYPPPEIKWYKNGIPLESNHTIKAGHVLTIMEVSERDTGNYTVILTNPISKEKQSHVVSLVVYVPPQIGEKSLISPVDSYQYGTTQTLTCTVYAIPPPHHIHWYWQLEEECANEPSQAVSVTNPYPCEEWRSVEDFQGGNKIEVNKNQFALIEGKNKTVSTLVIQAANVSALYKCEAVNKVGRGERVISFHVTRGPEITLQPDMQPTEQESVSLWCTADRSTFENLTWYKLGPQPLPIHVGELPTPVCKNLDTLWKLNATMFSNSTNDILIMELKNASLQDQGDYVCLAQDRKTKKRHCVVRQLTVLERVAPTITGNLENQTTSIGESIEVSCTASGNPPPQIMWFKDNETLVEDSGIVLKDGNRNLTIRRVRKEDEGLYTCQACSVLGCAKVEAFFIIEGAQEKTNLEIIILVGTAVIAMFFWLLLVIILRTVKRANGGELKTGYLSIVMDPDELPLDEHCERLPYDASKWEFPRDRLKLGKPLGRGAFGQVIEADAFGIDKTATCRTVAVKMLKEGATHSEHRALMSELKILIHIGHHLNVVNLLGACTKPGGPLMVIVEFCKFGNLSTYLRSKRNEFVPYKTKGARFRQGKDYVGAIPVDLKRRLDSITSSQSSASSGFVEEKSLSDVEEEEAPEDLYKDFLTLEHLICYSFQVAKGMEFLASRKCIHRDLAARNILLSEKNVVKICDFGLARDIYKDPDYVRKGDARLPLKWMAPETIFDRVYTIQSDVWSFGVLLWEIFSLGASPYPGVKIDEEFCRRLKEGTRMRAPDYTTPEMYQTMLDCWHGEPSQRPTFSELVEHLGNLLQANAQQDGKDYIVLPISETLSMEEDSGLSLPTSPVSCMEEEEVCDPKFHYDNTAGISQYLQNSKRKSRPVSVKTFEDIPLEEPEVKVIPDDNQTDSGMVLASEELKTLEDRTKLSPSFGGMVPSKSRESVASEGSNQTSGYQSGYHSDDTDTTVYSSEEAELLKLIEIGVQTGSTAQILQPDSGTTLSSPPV
Experimental: as §2, §3, §4

EGFR (ErbB1) = molecular target: T9, EGFR (ErbB1) (Homo sapiens, UniProt P00533); assay: In vitro kinase assay (Z′-LYTE); format: biochemical; settings: read-out: % of inhibition of the kinase compared to the control
T9 construct: purchased Invitrogen
T9 sequence (P00533 25-1210): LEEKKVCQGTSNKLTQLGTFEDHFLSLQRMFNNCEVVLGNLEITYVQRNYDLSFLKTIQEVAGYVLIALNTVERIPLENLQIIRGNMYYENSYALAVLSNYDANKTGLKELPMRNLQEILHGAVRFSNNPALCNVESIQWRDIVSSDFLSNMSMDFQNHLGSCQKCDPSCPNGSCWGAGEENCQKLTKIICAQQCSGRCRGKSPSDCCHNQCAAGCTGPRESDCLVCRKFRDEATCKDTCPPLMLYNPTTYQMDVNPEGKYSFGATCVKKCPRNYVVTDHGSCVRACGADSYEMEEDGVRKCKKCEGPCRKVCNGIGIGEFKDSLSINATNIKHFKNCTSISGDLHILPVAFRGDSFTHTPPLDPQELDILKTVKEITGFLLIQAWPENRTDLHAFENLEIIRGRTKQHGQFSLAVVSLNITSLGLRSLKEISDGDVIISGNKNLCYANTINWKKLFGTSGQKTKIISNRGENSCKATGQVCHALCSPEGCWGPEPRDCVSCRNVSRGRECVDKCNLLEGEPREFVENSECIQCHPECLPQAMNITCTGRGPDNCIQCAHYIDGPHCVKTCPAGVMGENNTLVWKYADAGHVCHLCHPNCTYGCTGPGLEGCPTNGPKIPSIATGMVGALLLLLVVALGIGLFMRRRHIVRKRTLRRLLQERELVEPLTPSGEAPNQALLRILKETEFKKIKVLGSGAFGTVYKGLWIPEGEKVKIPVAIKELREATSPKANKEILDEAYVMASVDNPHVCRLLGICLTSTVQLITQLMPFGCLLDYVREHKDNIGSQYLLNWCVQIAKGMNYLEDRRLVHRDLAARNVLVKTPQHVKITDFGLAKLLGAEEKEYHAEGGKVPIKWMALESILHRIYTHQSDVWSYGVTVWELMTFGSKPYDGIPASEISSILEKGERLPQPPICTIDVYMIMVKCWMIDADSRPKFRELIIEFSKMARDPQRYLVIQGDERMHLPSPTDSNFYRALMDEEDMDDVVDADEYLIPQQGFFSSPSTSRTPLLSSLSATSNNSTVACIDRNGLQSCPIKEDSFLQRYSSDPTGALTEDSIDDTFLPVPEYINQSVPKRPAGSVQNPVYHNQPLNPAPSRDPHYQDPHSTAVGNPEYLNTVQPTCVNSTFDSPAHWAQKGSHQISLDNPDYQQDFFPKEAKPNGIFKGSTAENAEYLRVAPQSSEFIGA
Experimental: as §2, §3, §4

SRC = molecular target: T10, SRC (Homo sapiens, UniProt P12931); assay: In vitro kinase assay (Z′-LYTE); format: biochemical; settings: read-out: % of inhibition of the kinase compared to the control
T10 construct: purchased Invitrogen
Experimental: as §2, §3, §4

PDGFRA (PDGFR alpha) = molecular target: T11, PDGFRA (PDGFR alpha) (Homo sapiens, UniProt P16234); assay: In vitro kinase assay (Z′-LYTE); format: biochemical; settings: read-out: % of inhibition of the kinase compared to the control
T11 construct: purchased Invitrogen
Experimental: as §2, §3, §4

FGFR1 = molecular target: T12, FGFR1 (Homo sapiens, UniProt P11362); assay: In vitro kinase assay (Z′-LYTE); format: biochemical; settings: read-out: % of inhibition of the kinase compared to the control
T12 construct: purchased Invitrogen
Experimental: as §2, §3, §4

Compound	EC50 (BxPC-3) [µM]	EC50 (A549) [µM]	EC50 (HUVEC) [µM]	EC50 (HepG2) [µM]	EC50 (H1975) [µM]	EC50 (HT29) [µM]	inhibition at 0.1 µM (FGFR2) [%]	inhibition at 10 µM (ABL T315I) [%]	inhibition at 0.1 µM (PDGFRB) [%]	inhibition at 0.1 µM (BRAF) [%]	inhibition at 0.1 µM (VEGFR1) [%]	inhibition at 10 µM (ABL) [%]	inhibition at 0.1 µM (EGFR (ErbB1) T790M L858R) [%]	inhibition at 0.1 µM (KDR (VEGFR2)) [%]	inhibition at 0.1 µM (EGFR (ErbB1)) [%]	inhibition at 0.1 µM (SRC) [%]	inhibition at 0.1 µM (PDGFRA (PDGFR alpha)) [%]	inhibition at 0.1 µM (FGFR1) [%]
COC(=O)c1cc2cc(NCc3cc(NC(=O)c4ccc(CNCCN5CCN(C)CC5)c(C(F)(F)F)c4)ccc3C)cnc2[nH]1 [OR0637]	≥ 1	0.1 to 1	0.1 to 1	0.1 to 1	≥ 1	0.1 to 1	< 50	≥ 50	≥ 50	≥ 50	< 50	≥ 50	≥ 50	≥ 50	≥ 50	≥ 50	≥ 50	< 50
COC(=O)c1cc2cc(NCc3ccc(C)c(NC(=O)c4ccc(CN5CCN(C)CC5)c(C(F)(F)F)c4)c3)cnc2[nH]1 [OR0622]	≥ 1	≥ 1	0.1 to 1	≥ 1	≥ 1	≥ 1	≥ 50	≥ 50	< 50	< 50	< 50	≥ 50	< 50	≥ 50	< 50	≥ 50	≥ 50	≥ 50
COC(=O)c1cc2cc(NCc3cc(NC(=O)c4ccc(CN5CCOCC5)c(C(F)(F)F)c4)ccc3C)cnc2[nH]1 [OR0598]	0.1 to 1	0.1 to 1	≤ 0.1	0.1 to 1	0.1 to 1	0.1 to 1	< 50	≥ 50	< 50	< 50	< 50	≥ 50	< 50	< 50	≥ 50	≥ 50	≥ 50	< 50
COC(=O)c1cc2cc(NCc3cc(NC(=O)c4cccc(Br)c4)ccc3C)cnc2[nH]1 [OR0608]	0.1 to 1	0.1 to 1	0.1 to 1	0.1 to 1	≥ 1	≥ 1	< 50	< 50	< 50	≥ 50	< 50	≥ 50	< 50	≥ 50	< 50	≥ 50	≥ 50	< 50
COC(=O)c1cc2cc(NCc3cc(NC(=O)C4CCC(C(F)(F)F)CC4)ccc3C)cnc2[nH]1 (stereo not drawn) [OR0612]	0.1 to 1	0.1 to 1	0.1 to 1	0.1 to 1	≥ 1	≥ 1	< 50	< 50	< 50	< 50	< 50	≥ 50	< 50	< 50	< 50	≥ 50	≥ 50	< 50
COC(=O)c1cc2cc(NCc3cc(NC(=O)Cc4cccc(C(F)(F)F)c4)ccc3C)cnc2[nH]1 [OR0601]	≥ 1	0.1 to 1	≤ 0.1	≤ 0.1	≥ 1	0.1 to 1	< 50	< 50	< 50	≥ 50	< 50	≥ 50	< 50	< 50	< 50	≥ 50	≥ 50	< 50
